Test results reported in BindingDB's records for doi:10.1016/S0002-8703(03)00398-3 (University of Maryland Hospital, 2003).

Molecular target: Prostaglandin G/H synthase 1 (Homo sapiens, UniProt P23219)
Sequence (P23219 whole entry): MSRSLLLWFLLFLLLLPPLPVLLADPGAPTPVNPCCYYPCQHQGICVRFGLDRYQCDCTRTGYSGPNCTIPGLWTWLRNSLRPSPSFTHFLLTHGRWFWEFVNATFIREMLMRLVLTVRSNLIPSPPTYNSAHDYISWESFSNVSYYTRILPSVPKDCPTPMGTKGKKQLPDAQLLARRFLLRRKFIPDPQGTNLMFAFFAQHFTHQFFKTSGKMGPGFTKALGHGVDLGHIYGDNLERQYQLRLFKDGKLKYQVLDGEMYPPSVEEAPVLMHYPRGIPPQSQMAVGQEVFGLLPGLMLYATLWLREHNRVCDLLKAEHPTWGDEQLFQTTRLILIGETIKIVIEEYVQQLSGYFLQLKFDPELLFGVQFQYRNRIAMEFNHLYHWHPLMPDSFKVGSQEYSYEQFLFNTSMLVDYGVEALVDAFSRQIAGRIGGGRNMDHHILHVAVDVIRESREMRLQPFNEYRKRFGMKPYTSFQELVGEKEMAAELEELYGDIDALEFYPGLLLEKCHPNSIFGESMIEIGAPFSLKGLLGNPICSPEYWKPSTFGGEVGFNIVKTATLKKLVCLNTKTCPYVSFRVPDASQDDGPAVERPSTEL

Cc1ccc(-c2ncc(Cl)cc2-c2ccc(S(C)(=O)=O)cc2)cn1
Ki: > 10 µM
